Patent publication US6472425B1, “Methods for treating female sexual dysfunctions” (NitroMed, Inc., priority 1997, dated 2002)

System: Human corpus cavernosum tissue
Assay: In vitro comparative relaxation responses, isometric tension of phenylephrine-contracted tissue strips in organ chambers
Type: cell-based
Details: doses of 10 μM and 30 μM, compared with an equimolar dose of dipyridamole; tissue contracted with phenylephrine 7×10^−7 M; −100% = tone after papaverine 10^−4 M; FIG. 40
Source text: In Vitro Comparative Relaxation Responses
Human corpus cavernosum tissue biopsies were obtained at the time of penile prosthesis implantation from impotent men. The tissue was maintained in a chilled Krebs-bicarbonate solution prior to assay. The tissue was cut into strips of 0.3×0.3×1 cm and suspended in organ chambers for isometric tension measurement. Tissues were incrementally stretched until optimal isometric tension for contraction was obtained. Once this was achieved, the tissues were contracted with phenylephine (7×10^−7 M) and once a stable contraction was achieved, the tissues were exposed to either dipyridamole or Example 1 (10^−6 to 3×10^−5 M) by cumulative additions to the chamber. At the end of the experiment papaverine (10^−4 M) is added to obtain maximal relaxation. […] Data are expressed as the percent loss in tone from the phenylephrine-induced contraction (0%=phenylephrine contraction; −100% tone after the administration of papaverine).

**Q.** With CC(C)(CC(=O)OCCN(CCOC(=O)CC(C)(C)SN=O)c1nc(N2CCCCC2)c2nc(N(CCOC(=O)CC(C)(C)SN=O)CCOC(=O)CC(C)(C)SN=O)nc(N3CCCCC3)c2n1)SN=O [Example 1, 2,6-bis(diethyl(3-methyl-3(nitrosothiol)butyric acid ester)amino)-4,8-dipiperidinopyrimido-[5,4d]-pyrimidine] as the compound, how does the “relaxing the phenylephrine-induced contraction (percent loss in tone from the phenylephrine-induced contraction)” value read?
**A.** Its value is “more efficacious”.
